# Measured values: publication PMC10934121 (Molecules, 2024)
# Where “and” joins values, the source holds several entries; their conditions need not be identical. Equal values may be shown once.
# Experiments:
# monoamine oxidase = conditions: cited from earlier work
# [1] = Plasma and brain concentration after oral administration of 3-hydroxyindolin-2-one; type: in vivo, C57BL/6J mice; conditions: 30 min after oral 3-hydroxyindolin-2-one 100, 200, 400 mg/kg
# Description: (§1) All animal testing was performed with the European Communities Council Directive 2010/63/E.U. guidelines and approved by the Lithuania State Food and Veterinary Service, Animal Ethics Experimentation Committee (project G2-244). C57BL/6JRj mouse line animals (Janvier Labs, Le Genest-Saint-Isle, France) were used for all procedures. Before the experiment, animals were housed in groups under a 12 h light–dark cycle with a temperature of 21 ± 1 °C and humidity of 55 ± 10%. The experiment was conducted in 3 major phases (Figure 8).
# Animals were starved for 1 h before the administration of the compounds. […] The animals then were housed in single cages and culled at different time points (30 min, 1 h, 2 h, 4 h, and 6 h). The organs were immediately extracted on ice and stored at –80 °C until further analysis. The inside of the intestines was cleaned before freezing. 3-Hydroxyindolin-2-one was administered by gavage at three doses (100 mg/kg, 200 mg/kg, and 400 mg/kg). The animals were culled 30 min after the administration. The organs were immediately removed on ice and stored at –80 °C until further analysis. […]
# (§2) Organ extracts were analyzed by HPLC/MS as described in [20]. […] Limits of detection (LOD) for HPLC determination of the metabolite concentrations were determined by using different concentrations of standard solutions and following the same extraction protocol as described above.
# [2] = Time-resolved concentrations of indole and its metabolites in organs after oral administration of indole (HPLC/MS); type: in vivo, C57BL/6J mice; conditions: for Tmax: C57BL/6JRj, mouse, in vivo, 350 mg/kg
# Description: as §1
# Animals were starved for 1 h before the administration of the compounds. […] The animals then were housed in single cages and culled at different time points (30 min, 1 h, 2 h, 4 h, and 6 h). The organs were immediately extracted on ice and stored at –80 °C until further analysis. The inside of the intestines was cleaned before freezing. 3-Hydroxyindolin-2-one was administered by gavage at three doses (100 mg/kg, 200 mg/kg, and 400 mg/kg). The animals were culled 30 min after the administration. The organs were immediately removed on ice and stored at –80 °C until further analysis.
# Organ samples were thawed, weighed, and homogenized (3 cycles ×30 s, using Benchmark the BeadBug 6 homogenizer, Sayreville, NJ, USA) in 1 mL of deionized water containing different concentrations of 1-methylindolin-2-one as an internal standard. Plasma samples were not homogenized and were subjected to liquid–liquid extraction directly. Organ homogenates were centrifuged at 16,000× g for 10 min at 4 °C. The supernatants were extracted three times with equal amounts of ethyl acetate. All three extracts were pooled and evaporated under reduced pressure (AES2000 SpeedVAC, Savant, Thermo Fisher Scientific, Waltham, MA, USA). The dried material was dissolved in 100 μL 50% methanol by vigorous shaking and centrifugation at 16,000× g for 5 min. The supernatant was subjected to HPLC/MS analysis.
# as §2
# acetylcholinesterase = conditions: cited from earlier work
# [3] = Detection of 13C isotope-carrying metabolites after oral stable isotope-carrying indole (HPLC/MS); type: in vivo, C57BL/6J mice; conditions: 2 h after gavage of 13C (C2) indole; N = 1
# Description: Since indole is produced endogenously by the gut microbiota from dietary compounds, it is possible that the metabolites identified in the organ extracts were produced from endogenous indole or other precursors rather than the exogenously supplied indole. […] We detected heavier isotopes of indolin-2-one and 3-hydroxyindolin-2-one in the brain, liver, cecum, small intestine, and colon 2 h after administration (Figure 4, Figures S1–S15). This confirmed the previous experiment and provided direct evidence that indole in the gut is a substrate for several metabolites that spread throughout the body and even to the brain.
# All animal testing was performed with the European Communities Council Directive 2010/63/E.U. guidelines and approved by the Lithuania State Food and Veterinary Service, Animal Ethics Experimentation Committee (project G2-244). C57BL/6JRj mouse line animals (Janvier Labs, Le Genest-Saint-Isle, France) were used for all procedures. Before the experiment, animals were housed in groups under a 12 h light–dark cycle with a temperature of 21 ± 1 °C and humidity of 55 ± 10%. […]
# as §2
# CYP2E1 = experiment: Gene expression by real-time PCR after indole administration; type: in vivo, C57BL/6J mice; conditions: liver
# Description: as §1
# (§3) The total RNA was isolated from the mice’s brain medulla and liver tissues using the TRIzol™ Plus RNA Purification Kit according to the manufacturer’s protocol (Thermo Fisher Scientific, Vilnius, Lithuania). To remove gDNA, samples were treated with dsDNase reagent (Thermo Fisher Scientific, Lithuania). cDNA was synthesized using a High-Capacity cDNA Reverse Transcription kit (Thermo Fisher Scientific, Lithuania) according to the manufacturer’s instructions. The expression of CYP1A2, CYP2E1, CYP2A5, CYP2C29, CBR1, CBR3, and GAPDH was analyzed by the QuantStudio™ 3 Real-Time PCR System (Thermo Fisher Scientific, Lithuania), using SYBR™ Green PCR Master Mix (Thermo Fisher Scientific, Lithuania). The following primer sequences were used: Cyp2c29_FW (5′-[…]-3′), Cyp2c29_RV (5′-[…]-3′), Cyp2a5_FW (5′-[…]-3′), Cyp2a5_RV (5′-[…]-3′), Cbr3_FW (5′-[…]-3′), Cbr3_RV (5′-[…]-3′), Cyp1a2_FW (5′-[…]-3′), Cyp1a2_RV (5′-[…]-3′), Cyp2e1_FW (5′-[…]-3′), Cyp2e1_RV (5′-[…]-3′), GAPDH_FW (5′-[…]-3′), GAPDH_RV (5′-[…]-3′), Cbr1_FW (5′-[…]-3′), Cbr1_RV (5′-[…]-3′). All samples were run in duplicates. Ct values were normalized to GAPDH using the delta–delta Ct method.
# CBR1 = experiment: as above; type: in vivo, C57BL/6J mice
# Description: as §1, §3
# CBR3 = experiment: as above; type: in vivo, C57BL/6J mice; conditions: for CBR3 expression increase: liver
# Description: as §1, §3
# CYP1A2 = experiment: as above; type: in vivo, C57BL/6J mice; conditions: liver, 1 h after indole administration, increasing with time
# Description: as §1, §3
# [4] = design: method as in PMID 9572285; conditions: cited from earlier work
# [5] = cited from earlier work
# [6] = 30 min after oral indole 350 mg/kg, individual mice (samples 1-2)
# [7] = 30 min after oral indole 350 mg/kg, individual mice (samples 1-3)
# [8] = 1 h after oral indole 350 mg/kg, individual mice (samples 1-3)
# [9] = 2 h after oral indole 350 mg/kg, individual mice (samples 1-3)
# [10] = 4 h after oral indole 350 mg/kg, individual mice (samples 1-3)
# [11] = 6 h after oral indole 350 mg/kg, individual mice (samples 1-3)
structure (smiles),measurement,setting,value
"O=C1Nc2ccccc2C1O (stereo not shown) [3-hydroxyindolin-2-one, 3-hydroxy-1,3-dihydro-2H-indol-2-one]",Inhibitory effect on monoamine oxidase compared to isatin,monoamine oxidase,lower inhibitory effect
same,Concentration in brain,[1],significant dose-dependent increase
same,Concentration in plasma,[1],significant dose-dependent increase
same,Concentration in cecum extracts,[2]; [6],22.14 nmol/g and 29.66 nmol/g
same,Concentration in brain extracts,[2]; [7],54.77 nmol/g and 76.19 nmol/g and 69.87 nmol/g
same,Concentration in large intestine (LI) extracts,[2]; [7],45.32 nmol/g and 75.39 nmol/g and 41.71 nmol/g
same,Concentration in liver extracts,[2]; [7],7.43 nmol/g and 14.12 nmol/g and 15.72 nmol/g
same,Concentration in plasma,[2]; [7],BDL
same,Concentration in small intestine (SI) extracts,[2]; [7],76.51 nmol/g and 53.50 nmol/g and 66.77 nmol/g
same,Concentration in brain extracts,[2]; [8],65.73 nmol/g and 37.10 nmol/g and 68.54 nmol/g
same,Concentration in cecum extracts,[2]; [8],18.19 nmol/g and 12.89 nmol/g and 17.05 nmol/g
same,Concentration in large intestine (LI) extracts,[2]; [8],30.45 nmol/g and 6.37 nmol/g and 58.67 nmol/g
same,Concentration in liver extracts,[2]; [8],64.90 nmol/g and 46.68 nmol/g and 86.61 nmol/g
same,Concentration in plasma,[2]; [8],BDL
same,Concentration in small intestine (SI) extracts,[2]; [8],52.78 nmol/g and 4.63 nmol/g and BDL
same,Concentration in brain extracts,[2]; [9],BDL
same,Concentration in cecum extracts,[2]; [9],7.06 nmol/g and 19.80 nmol/g and 10.80 nmol/g
same,Concentration in large intestine (LI) extracts,[2]; [9],BDL
same,Concentration in liver extracts,[2]; [9],63.22 nmol/g and BDL
same,Concentration in plasma,[2]; [9],BDL
same,Concentration in small intestine (SI) extracts,[2]; [9],BDL (2×) and 48.78 nmol/g
same,Concentration in brain extracts,[2]; [10],BDL
same,Concentration in cecum extracts,[2]; [10],21.81 nmol/g and 17.61 nmol/g and BDL
same,Concentration in large intestine (LI) extracts,[2]; [10],BDL
same,Concentration in liver extracts,[2]; [10],18.61 nmol/g and BDL and 6.72 nmol/g
same,Concentration in plasma,[2]; [10],BDL (2×) and 15.47 nmol/g
same,Concentration in small intestine (SI) extracts,[2]; [10],BDL (2×) and 24.91 nmol/g
same,Concentration in brain extracts,[2]; [11],BDL
same,Concentration in cecum extracts,[2]; [11],35.22 nmol/g and BDL and 13.51 nmol/g
same,Concentration in large intestine (LI) extracts,[2]; [11],18.68 nmol/g and BDL and 33.36 nmol/g
same,Concentration in liver extracts,[2]; [11],BDL
same,Concentration in plasma,[2]; [11],BDL
same,Concentration in small intestine (SI) extracts,[2]; [11],BDL
same,Presence in the brain,[2]; after oral indole 350 mg/kg,found in the brain
same,"Time of highest concentrations in liver, small intestine and brain",[2]; after oral indole 350 mg/kg,1 h
same,Inhibitory effect on acetylcholinesterase compared to isatin,acetylcholinesterase,lower inhibitory effect
same,"Heavier (13C) isotope of metabolite in brain, liver, cecum, small intestine and colon",[3],detected
"c1ccc2[nH]ccc2c1 [Indole, indole]",Concentration in cecum extracts,[2]; [6],37.54 nmol/g and 22.73 nmol/g
same,Concentration in brain extracts,[2]; [7],59.54 nmol/g and 147.88 nmol/g and 22.10 nmol/g
same,Concentration in large intestine (LI) extracts,[2]; [7],119.49 nmol/g and 137.49 nmol/g and 66.42 nmol/g
same,Concentration in liver extracts,[2]; [7],156.1 nmol/g and 54.56 nmol/g and 3.21 nmol/g
same,Concentration in plasma,[2]; [7],170.99 nmol/g and 96.67 nmol/g and 15.31 nmol/g
same,Concentration in brain extracts,[2]; [8],4.75 nmol/g and BDL and 5.84 nmol/g
same,Concentration in cecum extracts,[2]; [8],29.05 nmol/g and 32.96 nmol/g and 48.99 nmol/g
same,Concentration in large intestine (LI) extracts,[2]; [8],4.64 nmol/g and 2.89 nmol/g and 70.74 nmol/g
same,Concentration in liver extracts,[2]; [8],BDL
same,Concentration in plasma,[2]; [8],6.73 nmol/g and 0.00 nmol/g and 10.19 nmol/g
same,Concentration in brain extracts,[2]; [9],BDL
same,Concentration in cecum extracts,[2]; [9],7.99 nmol/g and 0.00 nmol/g and 24.86 nmol/g
same,Concentration in large intestine (LI) extracts,[2]; [9],2.89 nmol/g and 7.18 nmol/g and 278.22 nmol/g
same,Concentration in liver extracts,[2]; [9],67.36 nmol/g and 3.05 nmol/g and 414.1 nmol/g
same,Concentration in plasma,[2]; [9],0.00 nmol/g (2×) and 5.68 nmol/g
same,Concentration in brain extracts,[2]; [10],BDL and 1.41 nmol/g
same,Concentration in cecum extracts,[2]; [10],0.00 nmol/g and 12.47 nmol/g
same,Concentration in large intestine (LI) extracts,[2]; [10],30.39 nmol/g and 11.51 nmol/g and 34.93 nmol/g
same,Concentration in liver extracts,[2]; [10],8.76 nmol/g and 0.00 nmol/g and 97.7 nmol/g
same,Concentration in plasma,[2]; [10],0.00 nmol/g (2×) and 3.97 nmol/g
same,Concentration in brain extracts,[2]; [11],BDL
same,Concentration in cecum extracts,[2]; [11],0.00 nmol/g
same,Concentration in large intestine (LI) extracts,[2]; [11],171.66 nmol/g and 231.01 nmol/g and 24.29 nmol/g
same,Concentration in liver extracts,[2]; [11],80.7 nmol/g and 58.6 nmol/g and BDL
same,Concentration in plasma,[2]; [11],0.00 nmol/g
same,Tmax,"[2]; po, read-out: Time of peak plasma concentration (converted)",30 min
same,Presence in the brain,[2]; after oral indole 350 mg/kg,found in the brain
same,Highest indole concentration (liver),"[2]; liver, 2 h after ingestion of indole 350 mg/kg",414.15 nmol/g
same,Time within which indole is metabolized,[2]; oral indole 350 mg/kg,up to 6 h
same,CYP2E1 expression,CYP2E1,mainly unchanged
same,CBR1 expression,"CBR1; liver and brain, any time point after indole administration",unaffected
same,CBR1 expression level,"CBR1; liver, after indole administration",not altered
same,CBR3 expression,"CBR3; brain, 2 h after indole administration",slight increase
same,CBR3 expression increase,CBR3; 4 h after indole administration,12 times
same,CBR3 expression increase,CBR3; 6 h after indole administration,8 times
same,CYP1A2 expression,CYP1A2,significant increase
"O=C1Cc2ccccc2N1 [Indolin-2-one, 1,3-dihydro-2H-indol-2-one]",Tmax,[2]; po,30 min
same,Effect of low doses in the blood,[4]; 10 mg/kg,reduced blood pressure and mild sedation
same,Effect of high doses,[4]; 100 mg/kg,coma and death
same,Blood–brain barrier crossing,[5],cross the blood–brain barrier
same,"Heavier (13C) isotope of metabolite in brain, liver, cecum, small intestine and colon",[3],detected
"O=C1Nc2ccccc2C1=O [Isatin, 3-hydroxy-2H-indol-2-one]",Tmax,[2],360 min
same,Tmax,[2]; po,30 min
same,Isatin in the brain,[5]; after systemic administration,up to 5 nmol/g
same,Blood–brain barrier crossing,[5],cross the blood–brain barrier
